Experiments:
Type in all cases: biochemical
[1] = target: T1, human serum albumin (HSA) (Homo sapiens, UniProt P02768); assay: Luminescence intensity measurement with human serum albumin; details: for HSA Luminescence intensity: total luminescence over 60 seconds, normalized against native coelenterazine in HSA set to 1.0, 10 µM substrate solution, 10 mM PB buffer pH 7.4
T1 construct: human serum-derived lyophilized powder, Fatty acid free, Globulin free, Sigma-Aldrich; purchased Sigma-Aldrich; host or cells: purified from human serum
Method: (§1) Human serum albumin (human serum-derived lyophilized powder, Fatty acid free, Globulin free, Sigma-Aldrich), other human protein species or bovine serum albumin (bovine serum-derived lyophilized powder, Sigma-Aldrich) was dissolved in PB Buffer (10 mM, pH 7.4) and used directly for luminescence measurement. As luminescent substrates, NCTZ, DeepBlueC™, MCLA™, control compounds 1 to 3, HuLumino12 and HuLumino22 were used. Each luminescent substrate was dissolved in methanol to give a 2 mM solution. This solution was diluted to 10 µM with 10 mM PB buffer (pH 7.4) for use as a substrate solution. To 90 µL of this solution, 10 µL of 10 mM PB buffer (pH 7.4) containing human serum albumin (HSA) or bovine serum albumin (BSA) was added to initiate a luminescent reaction. The luminescence intensity was measured with a Promega GloMax® 20/20 for 60 seconds, and the results were expressed as total luminescence (Total Luminescence/min) and compared (FIG. 1). […]

[2] = target: T2, bovine serum albumin (BSA) (Bos taurus, UniProt P02769); assay: Luminescence intensity measurement with bovine serum albumin; details: total luminescence over 60 seconds, normalized against native coelenterazine in HSA set to 1.0; 10 µM substrate solution, 10 mM PB buffer pH 7.4
T2 construct: bovine serum-derived lyophilized powder, Sigma-Aldrich; purchased Sigma-Aldrich; host or cells: purified from bovine serum
Method: as §1

[3] = target: T1, human serum albumin (HSA); assay: Signal to noise ratio of luminescence in the presence of HSA (FIG. 3); details: luminescent reaction with HSA; for S/N ratio: FIG. 3
Text: FIG. 3 is a graph showing the luminescence property (signal to noise ratio, S/N ratio) of compounds according to examples of the present invention and comparative examples in the presence of human serum albumin (HSA).

[4] = target: T3, HSA (Homo sapiens, UniProt P02768); assay: Michaelis-Menten constant of luminescent substrate/HSA reaction
T3 construct: human serum-derived lyophilized powder, Fatty acid free, Globulin free, Sigma-Aldrich; purchased Sigma-Aldrich; host or cells: purified from human serum

[5] = system: various human-derived proteins; assay: Luminescence intensity upon reaction with various human-derived proteins or bovine serum albumin (FIG. 2)
Method: FIG. 2 is a graph showing the luminescence intensity of HuLumino12 (a compound according to an example of the present invention) upon reaction with various human-derived proteins or bovine serum albumin.
as §1

[6] = target: T1, human serum albumin (HSA); assay: Luminescence spectrum measurement in the presence of HSA (FIG. 6)
Method: FIG. 6 is a graph showing the luminescence wavelength (luminescence spectrum measurement result) of HuLumino12 (a compound according to an example of the present invention) in the presence of human serum albumin (HSA).
The luminescence spectrum was measured with a spectrometer. The peak luminescence wavelength was obtained by being normalized against the peak luminescence intensity which was set to 1.0.

[7] = target: T1, human serum albumin (HSA); assay: Luminescence duration in the presence of HSA (FIG. 4); details: luminescent reaction with HSA
Text: FIG. 4 is a graph showing the luminescence property (luminescence duration) of HuLumino12 (a compound according to an example of the present invention) in the presence of human serum albumin (HSA).

[8] = target: T1, human serum albumin (HSA); assay: HSA concentration-dependent luminescence intensity, detection limit (FIG. 5)
Text: FIG. 5 is a graph showing the luminescence intensity of HuLumino12 (a compound according to an example of the present invention), which is dependent on the concentration of human serum albumin (HSA).

T1 sequence (P02768 25-609): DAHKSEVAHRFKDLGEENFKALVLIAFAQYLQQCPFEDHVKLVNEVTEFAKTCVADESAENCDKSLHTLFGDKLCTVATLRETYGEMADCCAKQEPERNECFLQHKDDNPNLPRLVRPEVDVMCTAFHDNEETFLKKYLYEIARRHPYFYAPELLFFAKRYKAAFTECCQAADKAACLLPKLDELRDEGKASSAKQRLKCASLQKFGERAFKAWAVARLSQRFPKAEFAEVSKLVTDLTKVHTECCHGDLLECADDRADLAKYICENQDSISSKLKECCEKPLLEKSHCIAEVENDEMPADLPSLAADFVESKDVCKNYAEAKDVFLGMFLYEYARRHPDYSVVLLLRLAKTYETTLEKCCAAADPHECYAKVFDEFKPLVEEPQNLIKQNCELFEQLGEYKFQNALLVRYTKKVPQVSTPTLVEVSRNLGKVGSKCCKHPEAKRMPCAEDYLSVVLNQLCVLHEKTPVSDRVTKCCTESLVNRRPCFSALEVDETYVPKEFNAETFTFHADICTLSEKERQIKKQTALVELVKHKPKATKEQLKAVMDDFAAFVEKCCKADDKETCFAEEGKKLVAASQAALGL
T2 sequence (P02769 25-607): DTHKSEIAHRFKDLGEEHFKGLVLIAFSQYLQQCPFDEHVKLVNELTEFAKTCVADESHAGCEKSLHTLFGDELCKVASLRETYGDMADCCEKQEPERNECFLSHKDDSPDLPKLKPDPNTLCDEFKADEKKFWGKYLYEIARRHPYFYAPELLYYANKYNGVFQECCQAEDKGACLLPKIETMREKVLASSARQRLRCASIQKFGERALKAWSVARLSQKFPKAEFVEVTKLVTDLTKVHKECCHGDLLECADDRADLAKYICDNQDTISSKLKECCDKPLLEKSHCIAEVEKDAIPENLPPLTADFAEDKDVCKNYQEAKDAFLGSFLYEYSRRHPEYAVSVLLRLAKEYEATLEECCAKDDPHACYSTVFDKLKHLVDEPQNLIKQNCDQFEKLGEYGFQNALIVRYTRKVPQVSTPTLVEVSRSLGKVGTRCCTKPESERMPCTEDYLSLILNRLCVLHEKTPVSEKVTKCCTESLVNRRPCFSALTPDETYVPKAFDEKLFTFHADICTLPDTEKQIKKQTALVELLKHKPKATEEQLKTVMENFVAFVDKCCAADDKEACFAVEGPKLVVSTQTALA
T3 sequence (P02768 25-609): as the sequence (P02768 25-609) above

SMILES | HSA Luminescence intensity [1] | BSA Luminescence intensity [2] | further results
O=c1c(Cc2ccccc2)nc2c[nH]c(/C=C/c3ccc(-c4ccccc4)cc3)cn1-2 [HuLumino44, (E)-6-(2-([1,1′-biphenyl]-4-yl)vinyl)-2-benzylimidazo[1,2-a]pyrazin-3(7H)-one] | 206 | 5.2 | S/N ratio relative to that of HuLumino12 [3]: approximately 4 fold; S/N ratio [3]: 150
COc1ccc(-c2cn3c(=O)c(C)nc-3c[nH]2)cc1 [MCLA™, reference compound] | 14.1 | 1.8 | –
COc1ccc(/C=C/c2cn3c(=O)c(Cc4ccccc4)nc-3c[nH]2)cc1 [HuLumino30, (E)-2-benzyl-6-(4-methoxystyryl)imidazo[1,2-a]pyrazin-3(7H)-one] | 154 | 19.2 | –
COCCCOc1ccc(-c2cn3c(=O)c(C)nc-3c[nH]2)cc1 [HuLumino22, 6-(4-(3-methoxypropoxy)phenyl)-2-methylimidazo[1,2-a]pyrazin-3(7H)-one] | 14.2 | 3.1 | –
COc1ccc(-c2cn3c(=O)c(Cc4ccccc4)nc-3c[nH]2)cc1 [Control compound 3, reference compound] | 554 | 34.4 | –
COCCCOc1ccc(-c2cn3c(=O)c(Cc4ccccc4)nc-3c(Cc3ccccc3)[nH]2)cc1 [BBlue2.3, reference compound] | 51.5 | 34.3 | –
O=c1c(Cc2ccccc2)nc2c[nH]c(/C=C/c3ccccc3)cn1-2 [HuLumino45, (E)-2-benzyl-6-styrylimidazo[1,2-a]pyrazin-3(7H)-one] | 61.3 | 9.8 | –
O=c1c(Cc2ccc(O)cc2)nc2c(Cc3ccccc3)[nH]c(-c3ccc(O)cc3)cn1-2 [NCTZ, reference compound] | 1.0 | 3.9 | Michaelis-Menten constant [4]: 25.3 µM
COCCCOc1ccc(-c2cn3c(=O)c(Cc4ccccc4)nc-3c[nH]2)cc1 [HuLumino12, 2-benzyl-6-(4-(3-methoxypropoxy)phenyl)imidazo[1,2-a]pyrazin-3(7H)-one] | 912 | 11.9 | luminescence intensity higher than NCTZ/HSA ([1]; with HSA, relative to NCTZ/HSA): 912 fold; Michaelis-Menten constant [4]: 4.2 µM; specificity of luminescent reaction among various human protein species [5]: specific luminescent reaction when recognized by human serum albumin (HSA); peak luminescence wavelength [6]: 427 nm; S/N ratio [3]: 37; luminescence duration [7]: 3 h; detection limit of HSA detection [8]: 7.4 µg/mL
O=c1c(Cc2ccccc2)nc2c[nH]c(-c3ccc(O)cc3)cn1-2 [Control compound 2, reference compound] | 13.7 | 11.2 | –
O=c1c(Cc2ccccc2)nc2c(Cc3ccccc3)[nH]c(-c3ccccc3)cn1-2 [DeepBlueC™, reference compound] | 22.1 | 7.6 | –
